Results: US12540129B2, “KIF18A inhibitors” (AMGEN INC., priority 2019, dated 2026)
pIC50: −log10 of the molar value.

Molecular target: T1, Recombinant human KIF18A (1-467 His-tagged) protein (Homo sapiens, UniProt Q8NI77)
T1 construct: Recombinant human KIF18A (1-467 His-tagged) protein; His; made in house
Assay: KIF18A Enzyme Assay: microtubule-stimulated ATPase activity (ADP-Glo)
Type: biochemical
Conditions: 30 nM KIF18A, 75 μM ATP
Method in brief: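 ADP-Glo luminescence reports ADP produced by His-tagged human KIF18A motor domain (1-467, insect-cell expressed) with microtubules and ATP.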

T1 sequence (Q8NI77 1-467): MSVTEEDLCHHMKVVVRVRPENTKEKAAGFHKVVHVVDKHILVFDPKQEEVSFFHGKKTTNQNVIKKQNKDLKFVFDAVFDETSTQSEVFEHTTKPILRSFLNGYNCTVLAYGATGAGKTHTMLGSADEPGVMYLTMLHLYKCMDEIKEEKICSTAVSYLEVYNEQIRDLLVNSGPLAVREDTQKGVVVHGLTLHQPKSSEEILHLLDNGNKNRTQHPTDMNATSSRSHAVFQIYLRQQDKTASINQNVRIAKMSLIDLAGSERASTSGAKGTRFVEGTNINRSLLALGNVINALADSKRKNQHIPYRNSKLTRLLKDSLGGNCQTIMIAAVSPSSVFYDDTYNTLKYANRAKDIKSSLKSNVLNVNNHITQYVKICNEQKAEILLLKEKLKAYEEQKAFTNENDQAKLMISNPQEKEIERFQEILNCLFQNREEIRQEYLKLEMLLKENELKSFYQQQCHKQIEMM
T1 sequence (P02550 whole entry partner): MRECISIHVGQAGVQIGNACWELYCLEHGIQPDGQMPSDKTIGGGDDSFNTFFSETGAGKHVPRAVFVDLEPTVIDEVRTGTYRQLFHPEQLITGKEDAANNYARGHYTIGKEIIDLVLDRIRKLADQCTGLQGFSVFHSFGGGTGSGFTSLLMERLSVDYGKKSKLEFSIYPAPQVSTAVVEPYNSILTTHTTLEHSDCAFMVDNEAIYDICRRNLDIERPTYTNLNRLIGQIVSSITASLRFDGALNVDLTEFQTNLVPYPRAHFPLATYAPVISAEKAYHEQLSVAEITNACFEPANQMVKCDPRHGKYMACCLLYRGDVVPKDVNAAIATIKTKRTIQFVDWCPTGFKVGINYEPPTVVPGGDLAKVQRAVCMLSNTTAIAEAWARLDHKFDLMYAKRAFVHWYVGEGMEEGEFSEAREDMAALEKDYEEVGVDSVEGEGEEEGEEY
T1 sequence (P02554 whole entry partner): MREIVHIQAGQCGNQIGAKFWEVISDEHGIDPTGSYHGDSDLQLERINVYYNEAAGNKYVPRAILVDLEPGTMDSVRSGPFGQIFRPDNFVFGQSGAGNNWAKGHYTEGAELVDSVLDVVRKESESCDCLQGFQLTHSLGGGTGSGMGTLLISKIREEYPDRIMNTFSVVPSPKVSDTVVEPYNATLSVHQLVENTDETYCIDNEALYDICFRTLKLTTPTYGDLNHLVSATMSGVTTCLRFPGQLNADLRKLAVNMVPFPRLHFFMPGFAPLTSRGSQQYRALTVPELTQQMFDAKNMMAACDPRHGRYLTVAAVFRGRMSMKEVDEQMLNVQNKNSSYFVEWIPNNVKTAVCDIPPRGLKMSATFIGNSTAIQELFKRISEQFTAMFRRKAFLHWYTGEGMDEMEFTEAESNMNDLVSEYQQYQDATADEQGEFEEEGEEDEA

| SMILES | pIC50 |
| --- | --- |
| CC(C)(C)NC(=O)c1cccc(NC(=O)c2ccc(NC(C)(C)CO)nc2N2CCC3(CC2)CC3)c1 [Example 105-25, N-(3-(tert-butylcarbamoyl)phenyl)-6-((1-hydroxy-2-methylpropan-2-yl)amino)-2-(6-azaspiro[2.5]octan-6-yl)nicotinamide] | 6.50 |
| CC(C)(CO)Nc1ccc(C(=O)Nc2cccc(N3CCCC3)c2)c(N2CCC3(CC2)CC3)n1 [Example 105-26, 6-((1-hydroxy-2-methylpropan-2-yl)amino)-N-(3-(pyrrolidin-1-yl)phenyl)-2-(6-azaspiro[2.5]octan-6-yl)nicotinamide] | 6.63 |
| CC(C)(CO)Nc1ccc(C(=O)Nc2cccc(N3CCOCC3)c2)c(N2CCC3(CC2)CC3)n1 [Example 105-27, 6-((1-hydroxy-2-methylpropan-2-yl)amino)-N-(3-morpholinophenyl)-2-(6-azaspiro[2.5]octan-6-yl)nicotinamide] | 6.58 |
| Cc1ccc(NC(=O)c2ccc(NC(C)(C)CO)nc2N2CCC3(CC2)CC3)cc1N1CCCC1=O [Example 105-29, 6-((1-hydroxy-2-methylpropan-2-yl)amino)-N-(4-methyl-3-(2-oxopyrrolidin-1-yl)phenyl)-2-(6-azaspiro[2.5]octan-6-yl)nicotinamide] | 6.55 |
| Cc1ccc(NC(=O)c2ccc(NC(C)(C)CO)nc2N2CCC3(CC2)CC3)cc1N1CCOCC1 [Example 105-30, 6-((1-hydroxy-2-methylpropan-2-yl)amino)-N-(4-methyl-3-morpholinophenyl)-2-(6-azaspiro[2.5]octan-6-yl)nicotinamide] | 6.58 |
| C[C@@H]1CN(c2cc(F)cc(NC(=O)c3ccc(NC(C)(C)CO)nc3N3CCC4(CC3)CC4)c2)CCO1 [Example 105-32, (R)-N-(3-fluoro-5-(2-methylmorpholino)phenyl)-6-((1-hydroxy-2-methylpropan-2-yl)amino)-2-(6-azaspiro[2.5]octan-6-yl)nicotinamide] | 6.68 |
| Cc1ccc(NC(=O)c2ccc(NC(C)(C)CO)nc2N2CCC3(CC2)CC3)cc1-c1ccoc1 [Example 111-1, N-(3-(furan-3-yl)-4-methylphenyl)-6-((1-hydroxy-2-methylpropan-2-yl)amino)-2-(6-azaspiro[2.5]octan-6-yl)nicotinamide] | 6.58 |
| Cc1ccc(NC(=O)c2ccc(NC(C)(C)CO)nc2N2CCC3(CC2)CC3)cc1-c1ccco1 [Example 111-2, N-(3-(furan-2-yl)-4-methylphenyl)-6-((1-hydroxy-2-methylpropan-2-yl)amino)-2-(6-azaspiro[2.5]octan-6-yl)nicotinamide] | 6.56 |
| Cc1ccc(NC(=O)c2ccc(NC(C)(C)CO)nc2N2CCC3(CC2)CC3)cc1-c1cc[nH]n1 [Example 111-3, 6-((1-hydroxy-2-methylpropan-2-yl)amino)-N-(4-methyl-3-(1H-pyrazol-3-yl)phenyl)-2-(6-azaspiro[2.5]octan-6-yl)nicotinamide] | 6.47 |
| Cc1ccc(NC(=O)c2ccc(NC(C)(C)CO)nc2N2CCC3(CC2)CC3)cc1-c1nccs1 [Example 111-4, 6-((1-hydroxy-2-methylpropan-2-yl)amino)-N-(4-methyl-3-(thiazol-2-yl)phenyl)-2-(6-azaspiro[2.5]octan-6-yl)nicotinamide] | 6.46 |
| Cc1coc(-c2cccc(NC(=O)c3ccc(NC(C)(C)CO)nc3N3CCC4(CC3)CC4)c2)n1 [Example 111-5, 6-((1-hydroxy-2-methylpropan-2-yl)amino)-N-(3-(4-methyloxazol-2-yl)phenyl)-2-(6-azaspiro[2.5]octan-6-yl)nicotinamide] | 6.65 |
| Cc1noc(-c2cccc(NC(=O)c3ccc(NC(C)(C)CO)nc3N3CCC4(CC3)CC4)c2)n1 [Example 111-7, 6-((1-hydroxy-2-methylpropan-2-yl)amino)-N-(3-(3-methyl-1,2,4-oxadiazol-5-yl)phenyl)-2-(6-azaspiro[2.5]octan-6-yl)nicotinamide] | 6.38 |
| Cn1nccc1-c1cccc(NC(=O)c2ccc(NC(C)(C)CO)nc2N2CCC3(CC2)CC3)c1 [Example 111-8, 6-((1-hydroxy-2-methylpropan-2-yl)amino)-N-(3-(1-methyl-1H-pyrazol-5-yl)phenyl)-2-(6-azaspiro[2.5]octan-6-yl)nicotinamide] | 6.27 |
| Cn1ccnc1-c1cccc(NC(=O)c2ccc(NC(C)(C)CO)nc2N2CCC3(CC2)CC3)c1 [Example 111-9, 6-((1-hydroxy-2-methylpropan-2-yl)amino)-N-(3-(1-methyl-1H-imidazol-2-yl)phenyl)-2-(6-azaspiro[2.5]octan-6-yl)nicotinamide] | 6.36 |
| Cc1ccc(NC(=O)c2ccc(NC(C)(C)CO)nc2N2CCC3(CC2)CC3)cc1-c1ccccn1 [Example 111-10, 6-((1-hydroxy-2-methylpropan-2-yl)amino)-N-(4-methyl-3-(pyridin-2-yl)phenyl)-2-(6-azaspiro[2.5]octan-6-yl)nicotinamide] | 6.52 |
| Cc1ccc(NC(=O)c2ccc(NC(C)(C)CO)nc2N2CCC3(CC2)CC3)cc1-c1cccnc1 [Example 111-11, 6-((1-hydroxy-2-methylpropan-2-yl)amino)-N-(4-methyl-3-(pyridin-3-yl)phenyl)-2-(6-azaspiro[2.5]octan-6-yl)nicotinamide] | 6.51 |
| Cc1ccc(NC(=O)c2ccc(NC(C)(C)CO)nc2N2CCC3(CC2)CC3)cc1-c1ccncc1 [Example 111-12, 6-((1-hydroxy-2-methylpropan-2-yl)amino)-N-(4-methyl-3-(pyridin-4-yl)phenyl)-2-(6-azaspiro[2.5]octan-6-yl)nicotinamide] | 6.41 |

Now those with a higher pIC50, led by results:

| pIC50 | SMILES |
| --- | --- |
| 6.70 | C[C@@H]1CN(c2cc(NC(=O)c3ccc(NC(C)(C)CO)nc3N3CCC4(CC3)CC4)ccc2F)CCO1 [Example 105-31, (R)-N-(4-fluoro-3-(2-methylmorpholino)phenyl)-6-((1-hydroxy-2-methylpropan-2-yl)amino)-2-(6-azaspiro[2.5]octan-6-yl)nicotinamide] |
| 6.79 | CC(C)(CO)Nc1ccc(C(=O)Nc2cccc(N3CCS(=O)(=O)CC3)c2)c(N2CCC3(CC2)CC3)n1 [Example 105-28, N-(3-(1,1-dioxidothiomorpholino)phenyl)-6-((1-hydroxy-2-methylpropan-2-yl)amino)-2-(6-azaspiro[2.5]octan-6-yl)nicotinamide] |
| 6.87 | Cc1cnc(-c2cccc(NC(=O)c3ccc(NC(C)(C)CO)nc3N3CCC4(CC3)CC4)c2)o1 [Example 111-6, 6-((1-hydroxy-2-methylpropan-2-yl)amino)-N-(3-(5-methyloxazol-2-yl)phenyl)-2-(6-azaspiro[2.5]octan-6-yl)nicotinamide] |
| 6.96 | CC(C)(C)NS(=O)(=O)c1cccc(NC(=O)c2ccc(NC(CO)CO)nc2N2CCC3(CC2)CC3)c1 [Example 106-2, N-(3-(N-(tert-butyl)sulfamoyl)phenyl)-6-((1,3-dihydroxypropan-2-yl)amino)-2-(6-azaspiro[2.5]octan-6-yl)nicotinamide] |
| 7.04 | CC(C)(C)NS(=O)(=O)c1cccc(NC(=O)c2ccc(NS(C)(=O)=O)nc2N2CCC3(CC2)CC3)c1 [Example 110, N-(3-(N-(tert-butyl)sulfamoyl)phenyl)-6-(methylsulfonamido)-2-(6-azaspiro[2.5]octan-6-yl)nicotinamide] |
| 7.11 | CC1(NS(=O)(=O)c2cccc(NC(=O)c3ccc(NC(CO)CO)nc3N3CCC4(CC3)CC4)c2)CCC1 [Example 106-1, 6-((1,3-dihydroxypropan-2-yl)amino)-N-(3-(N-(1-methylcyclobutyl)sulfamoyl)phenyl)-2-(6-azaspiro[2.5]octan-6-yl)nicotinamide] |
| 7.19 | CC(O)(c1ccc(C(=O)Nc2cccc(S(=O)(=O)C3CCCC3)c2)c(N2CCC3(CC2)CC3)n1)C(F)(F)F (stereo not drawn) [Example 108-2, N-(3-(cyclopentylsulfonyl)phenyl)-2-(6-azaspiro[2.5]octan-6-yl)-6-(1,1,1-trifluoro-2-hydroxypropan-2-yl)nicotinamide] |
| 7.27 | O=C(Nc1cccc(S(=O)(=O)C2CCCC2)c1)c1ccc(NC(CO)CO)nc1N1CCC2(CC1)CC2 [Example 106, N-(3-(Cyclopentylsulfonyl)phenyl)-6-((1,3-dihydroxypropan-2-yl)amino)-2-(6-azaspiro[2.5]octan-6-yl)nicotinamide] |
| 7.28 | CC(C)(C)NS(=O)(=O)c1cccc(NC(=O)c2ccc(NC(C)(CO)CO)nc2N2CCC3(CC2)CC3)c1 [Example 106-5, N-(3-(N-(tert-butyl)sulfamoyl)phenyl)-6-((1,3-dihydroxy-2-methylpropan-2-yl)amino)-2-(6-azaspiro[2.5]octan-6-yl)nicotinamide] |
| 7.28 | CC(O)(c1ccc(C(=O)Nc2cccc(S(=O)(=O)NC3CC3)c2)c(N2CCC3(CC2)CC3)n1)C(F)(F)F (stereo not drawn) [Example 108-1, N-(3-(N-cyclopropylsulfamoyl)phenyl)-2-(6-azaspiro[2.5]octan-6-yl)-6-(1,1,1-trifluoro-2-hydroxypropan-2-yl)nicotinamide] |
| 7.32 | CC(CO)(CO)Nc1ccc(C(=O)Nc2cccc(S(=O)(=O)NC3CC3)c2)c(N2CCC3(CC2)CC3)n1 [Example 106-6, N-(3-(N-cyclopropylsulfamoyl)phenyl)-6-((1,3-dihydroxy-2-methylpropan-2-yl)amino)-2-(6-azaspiro[2.5]octan-6-yl)nicotinamide] |
| 7.40 | Cc1ccc(NC(=O)c2ccc(NC(C)(CO)CO)nc2N2CCC3(CC2)CC3)cc1S(=O)(=O)C1CCCC1 [Example 106-4, N-(3-(cyclopentylsulfonyl)-4-methylphenyl)-6-((1,3-dihydroxy-2-methylpropan-2-yl)amino)-2-(6-azaspiro[2.5]octan-6-yl)nicotinamide] |
| 7.41 | CC(CO)(CO)Nc1ccc(C(=O)Nc2cccc(S(=O)(=O)C3CCCC3)c2)c(N2CCC3(CC2)CC3)n1 [Example 106-3, N-(3-(cyclopentylsulfonyl)phenyl)-6-((1,3-dihydroxy-2-methylpropan-2-yl)amino)-2-(6-azaspiro[2.5]octan-6-yl)nicotinamide] |
